Laboratory results reported in ChEMBL document CHEMBL1154644 (J Med Chem, 2009).
Active and inactive are the calls of the source. No cut-off for these calls is given here.

What was measured:
[1] = biological target: T1, Serine/threonine-protein kinase mTOR (Homo sapiens, UniProt P42345); test: Inhibition of human mTOR by DELFIA assay; assay type: single protein
[2] = biological target: Phosphatidylinositol 4,5-bisphosphate 3-kinase catalytic subunit alpha isoform (Homo sapiens, UniProt P42336); test: Inhibition of PI3Kalpha by fluorescence polarization assay
[3] = Selectivity for human mTOR over PI3Kalpha
[4] = biological target: T1, Serine/threonine-protein kinase mTOR; test: Inhibition of mTOR-mediated signaling in human A498 cells assessed as inhibition of phosphorylation of AKT (S473) measured after 6 hrs by immunoblotting
[5] = biological target: T1, Serine/threonine-protein kinase mTOR; test: Inhibition of mTOR-mediated signaling in human A498 cells assessed as inhibition of phosphorylation of 4EBP1 (T70) measured after 6 hrs by immunoblotting; assay type: cell-based
[6] = biological target: T1, Serine/threonine-protein kinase mTOR; test: Inhibition of mTOR-mediated signaling in human A498 cells assessed as inhibition of phosphorylation of S6K1(T389) measured after 6 hrs by immunoblotting; assay type: cell-based
[7] = biological target: T1, Serine/threonine-protein kinase mTOR; test: Inhibition of mTOR-mediated signaling in human A498 cells assessed as inhibition of phosphorylation of 4EBP1 (T37/46) measured after 6 hrs by immunoblotting; assay type: cell-based
[8] = biological target: Serine/threonine-protein kinase PAK 5 (Homo sapiens) (UniProt Q9P286); test: Inhibition of PAK7 at 2 uM
[9] = biological target: BDNF/NT-3 growth factors receptor (Homo sapiens) (UniProt Q16620); test: Inhibition of NTRK2 at 2 uM
[10] = biological target: Fibroblast growth factor receptor 1 (Homo sapiens) (UniProt P11362); test: Inhibition of FGFR1 at 2 uM
[11] = biological target: T1, Serine/threonine-protein kinase mTOR; test: Inhibition of mTOR-mediated signaling in human A498 cells assessed as inhibition of mTORC2 biomarker measured after 6 hrs by immunoblotting; assay type: cell-based
[12] = biological target: Serine/threonine-protein kinase 25 (Homo sapiens) (UniProt O00506); test: Inhibition of STK25 at 2 uM
[13] = biological target: T1, Serine/threonine-protein kinase mTOR; test: Inhibition of human mTOR assessed as ATP competitive inhibition by Lineweaver-Burke double reciprocal dose-response plot
[14] = biological target: Serine/threonine-protein kinase PAK 2 (Homo sapiens) (UniProt Q13177); test: Inhibition of PAK2 at 2 uM
[15] = Inhibition of AMPK at 2 uM
[16] = biological target: T1, Serine/threonine-protein kinase mTOR; test: Inhibition of mTOR-mediated signaling in PTEN-negative, PI3K/AKT-hyperactive human U87MG cells assessed as inhibition of phosphorylation of AKT(S473) measured after 6 hrs by immunoblotting; assay type: cell-based; conditions: U-87MG ATCC
[17] = biological target: Serine/threonine-protein kinase 26 (Homo sapiens) (UniProt Q9P289); test: Inhibition of MST4 at 2 uM
[18] = biological target: T1, Serine/threonine-protein kinase mTOR; test: Inhibition of mTOR-mediated signaling in PTEN-negative, PI3K/AKT-hyperactive human U87MG cells assessed as inhibition of phosphorylation of S6K1(T389) measured after 6 hrs by immunoblotting; assay type: cell-based; conditions: U-87MG ATCC
[19] = biological target: Serine/threonine-protein kinase D3 (PRKD3/PKCν) (Homo sapiens) (UniProt O94806); test: Inhibition of PRKCN at 2 uM
[20] = biological target: Tyrosine-protein kinase CSK (Homo sapiens) (UniProt P41240); test: Inhibition of CSK at 2 uM
[21] = biological target: Dual specificity protein kinase CLK1 (Homo sapiens) (UniProt P49759); test: Inhibition of CLK1 at 2 uM
[22] = biological target: T1, Serine/threonine-protein kinase mTOR; test: Inhibition of mTOR-mediated signaling in PTEN-negative, PI3K/AKT-hyperactive human U87MG cells assessed as inhibition of PI3K/PDK1 measured after 6 hrs by immunoblotting; assay type: cell-based; conditions: U-87MG ATCC
[23] = biological target: T2, Serine/threonine-protein kinase Sgk3 (Homo sapiens) (UniProt Q96BR1); test: Inhibition of SGKL at 2 uM
T2 sequence (whole entry): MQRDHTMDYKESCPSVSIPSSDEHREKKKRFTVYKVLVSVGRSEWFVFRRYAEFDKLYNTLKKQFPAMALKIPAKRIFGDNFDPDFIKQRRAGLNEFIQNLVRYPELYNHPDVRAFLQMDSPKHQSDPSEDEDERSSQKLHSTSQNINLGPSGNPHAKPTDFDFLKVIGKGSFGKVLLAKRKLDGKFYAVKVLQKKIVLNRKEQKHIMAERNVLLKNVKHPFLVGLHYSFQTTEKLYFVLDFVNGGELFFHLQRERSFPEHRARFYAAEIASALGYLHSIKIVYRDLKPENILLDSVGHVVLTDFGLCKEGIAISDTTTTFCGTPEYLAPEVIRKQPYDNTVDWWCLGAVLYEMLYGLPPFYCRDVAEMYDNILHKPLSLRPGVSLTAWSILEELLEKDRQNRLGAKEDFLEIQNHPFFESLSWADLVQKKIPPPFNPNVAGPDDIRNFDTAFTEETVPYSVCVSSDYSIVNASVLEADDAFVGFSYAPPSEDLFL

[24] = biological target: T1, Serine/threonine-protein kinase mTOR; test: Inhibition of mTOR-mediated signaling in PTEN-negative, PI3K/AKT-hyperactive human U87MG cells assessed as inhibition of phosphorylation of AKT(T308) measured after 6 hrs by immunoblotting; assay type: cell-based; conditions: U-87MG ATCC
[25] = biological target: Tyrosine-protein kinase JAK2 (Homo sapiens) (UniProt O60674); test: Inhibition of JAK2 at 2 uM
[26] = biological target: Angiopoietin-1 receptor (Homo sapiens) (UniProt Q02763); test: Inhibition of TEK at 2 uM
[27] = Clearance in rat hepatocyte assessed as half life; assay type: ADME, cell-based, Liver; conditions: hepatocytes

Chain of Phosphatidylinositol 4,5-bisphosphate 3-kinase catalytic subunit alpha isoform (P42336 whole entry, canonical isoform): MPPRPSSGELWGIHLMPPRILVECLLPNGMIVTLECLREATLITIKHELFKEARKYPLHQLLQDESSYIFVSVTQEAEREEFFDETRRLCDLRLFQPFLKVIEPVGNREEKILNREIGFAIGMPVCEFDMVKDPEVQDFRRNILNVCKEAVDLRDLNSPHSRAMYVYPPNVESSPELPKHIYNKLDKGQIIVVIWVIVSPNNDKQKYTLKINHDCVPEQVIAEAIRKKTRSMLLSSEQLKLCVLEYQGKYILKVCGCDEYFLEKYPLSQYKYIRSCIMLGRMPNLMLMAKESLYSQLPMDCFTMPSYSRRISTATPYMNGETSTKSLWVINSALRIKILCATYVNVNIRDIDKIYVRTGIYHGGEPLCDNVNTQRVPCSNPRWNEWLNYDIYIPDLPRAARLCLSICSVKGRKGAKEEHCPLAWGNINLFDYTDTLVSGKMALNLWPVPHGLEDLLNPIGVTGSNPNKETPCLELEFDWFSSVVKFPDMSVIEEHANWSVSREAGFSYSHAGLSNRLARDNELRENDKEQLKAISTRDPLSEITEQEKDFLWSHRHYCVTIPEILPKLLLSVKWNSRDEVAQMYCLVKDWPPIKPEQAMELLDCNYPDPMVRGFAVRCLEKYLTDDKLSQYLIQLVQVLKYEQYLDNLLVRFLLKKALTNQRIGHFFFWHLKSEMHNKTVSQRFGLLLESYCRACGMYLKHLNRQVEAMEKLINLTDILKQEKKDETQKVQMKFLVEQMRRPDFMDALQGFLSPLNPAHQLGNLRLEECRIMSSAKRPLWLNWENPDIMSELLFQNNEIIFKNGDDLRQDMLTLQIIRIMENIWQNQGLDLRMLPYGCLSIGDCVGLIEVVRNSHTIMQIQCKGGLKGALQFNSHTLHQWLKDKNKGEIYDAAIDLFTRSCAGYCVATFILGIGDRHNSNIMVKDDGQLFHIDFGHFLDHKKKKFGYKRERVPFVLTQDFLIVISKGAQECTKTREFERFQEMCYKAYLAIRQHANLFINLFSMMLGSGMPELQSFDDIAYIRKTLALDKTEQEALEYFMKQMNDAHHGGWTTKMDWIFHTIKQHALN
Chain of Fibroblast growth factor receptor 1 (Homo sapiens) (P11362 22-822 limits assumed): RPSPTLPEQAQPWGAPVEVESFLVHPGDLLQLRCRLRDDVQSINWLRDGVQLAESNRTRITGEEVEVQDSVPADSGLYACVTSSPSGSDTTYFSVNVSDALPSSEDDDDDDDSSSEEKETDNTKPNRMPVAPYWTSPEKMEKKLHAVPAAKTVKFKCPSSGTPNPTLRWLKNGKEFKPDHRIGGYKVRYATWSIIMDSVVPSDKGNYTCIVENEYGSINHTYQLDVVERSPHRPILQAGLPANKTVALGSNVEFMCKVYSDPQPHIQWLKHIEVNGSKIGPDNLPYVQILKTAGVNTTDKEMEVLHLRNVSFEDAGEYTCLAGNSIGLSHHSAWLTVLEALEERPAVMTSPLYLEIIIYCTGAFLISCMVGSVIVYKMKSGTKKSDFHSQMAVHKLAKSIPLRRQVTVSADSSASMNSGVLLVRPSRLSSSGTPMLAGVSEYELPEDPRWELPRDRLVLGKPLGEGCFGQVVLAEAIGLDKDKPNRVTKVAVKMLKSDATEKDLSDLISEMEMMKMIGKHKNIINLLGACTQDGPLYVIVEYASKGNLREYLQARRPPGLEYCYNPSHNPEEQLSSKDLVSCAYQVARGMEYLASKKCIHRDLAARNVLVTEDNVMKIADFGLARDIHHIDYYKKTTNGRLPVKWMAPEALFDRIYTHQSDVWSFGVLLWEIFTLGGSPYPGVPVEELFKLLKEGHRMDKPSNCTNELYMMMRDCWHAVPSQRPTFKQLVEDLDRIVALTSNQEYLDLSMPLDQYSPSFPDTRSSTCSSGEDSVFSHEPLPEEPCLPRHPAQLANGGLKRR
Chain of Serine/threonine-protein kinase 26 (Homo sapiens) (Q9P289 2-416 limits assumed): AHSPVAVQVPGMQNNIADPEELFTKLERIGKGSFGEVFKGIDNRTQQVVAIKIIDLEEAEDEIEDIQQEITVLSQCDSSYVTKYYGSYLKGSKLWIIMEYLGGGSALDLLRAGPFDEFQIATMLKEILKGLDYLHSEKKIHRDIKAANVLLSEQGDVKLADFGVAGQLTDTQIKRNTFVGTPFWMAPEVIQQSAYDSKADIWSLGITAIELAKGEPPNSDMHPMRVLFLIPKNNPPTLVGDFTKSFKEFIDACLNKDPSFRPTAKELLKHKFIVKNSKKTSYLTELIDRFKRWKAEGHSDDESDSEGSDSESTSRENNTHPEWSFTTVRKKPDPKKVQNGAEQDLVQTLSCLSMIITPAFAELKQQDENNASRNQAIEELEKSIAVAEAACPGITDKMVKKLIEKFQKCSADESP
Chain of Serine/threonine-protein kinase D3 (PRKD3/PKCν) (Homo sapiens) (O94806 whole entry, looked up): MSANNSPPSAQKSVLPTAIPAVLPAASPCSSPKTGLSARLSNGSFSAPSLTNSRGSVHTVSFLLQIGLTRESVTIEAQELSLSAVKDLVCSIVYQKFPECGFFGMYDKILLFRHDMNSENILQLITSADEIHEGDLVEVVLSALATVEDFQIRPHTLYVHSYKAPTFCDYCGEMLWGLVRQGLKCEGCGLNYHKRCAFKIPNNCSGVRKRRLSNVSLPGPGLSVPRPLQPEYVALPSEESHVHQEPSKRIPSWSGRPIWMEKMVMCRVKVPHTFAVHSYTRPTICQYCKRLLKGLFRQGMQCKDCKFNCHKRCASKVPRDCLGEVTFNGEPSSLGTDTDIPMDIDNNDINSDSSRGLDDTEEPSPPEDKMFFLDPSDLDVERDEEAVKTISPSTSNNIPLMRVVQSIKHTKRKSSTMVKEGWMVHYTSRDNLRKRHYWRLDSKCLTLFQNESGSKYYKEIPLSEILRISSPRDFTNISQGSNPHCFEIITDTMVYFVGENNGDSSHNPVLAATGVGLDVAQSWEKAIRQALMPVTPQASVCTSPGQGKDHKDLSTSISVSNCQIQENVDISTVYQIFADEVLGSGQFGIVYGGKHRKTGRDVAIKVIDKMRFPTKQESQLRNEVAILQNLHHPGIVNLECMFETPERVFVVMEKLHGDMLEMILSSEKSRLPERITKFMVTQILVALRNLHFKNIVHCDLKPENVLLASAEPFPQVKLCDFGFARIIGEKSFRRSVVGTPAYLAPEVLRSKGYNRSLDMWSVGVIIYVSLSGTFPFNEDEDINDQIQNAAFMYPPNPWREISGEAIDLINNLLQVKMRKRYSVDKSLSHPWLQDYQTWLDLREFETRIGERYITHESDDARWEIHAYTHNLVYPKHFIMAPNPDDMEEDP
Chain of Tyrosine-protein kinase CSK (Homo sapiens) (P41240 2-450 limits assumed): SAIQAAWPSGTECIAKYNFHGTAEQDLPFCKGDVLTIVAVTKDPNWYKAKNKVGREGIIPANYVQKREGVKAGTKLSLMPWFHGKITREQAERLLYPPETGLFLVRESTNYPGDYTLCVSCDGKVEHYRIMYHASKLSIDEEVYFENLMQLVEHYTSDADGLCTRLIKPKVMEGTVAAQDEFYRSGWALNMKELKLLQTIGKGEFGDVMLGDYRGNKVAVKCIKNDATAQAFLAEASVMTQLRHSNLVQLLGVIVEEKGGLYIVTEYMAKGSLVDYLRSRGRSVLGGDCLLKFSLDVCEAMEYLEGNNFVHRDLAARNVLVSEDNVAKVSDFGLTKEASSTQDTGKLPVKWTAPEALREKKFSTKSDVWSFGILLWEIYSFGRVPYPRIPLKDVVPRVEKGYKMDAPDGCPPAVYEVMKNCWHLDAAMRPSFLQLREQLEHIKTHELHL
Chain of Serine/threonine-protein kinase PAK 5 (Homo sapiens) (Q9P286 whole entry, looked up): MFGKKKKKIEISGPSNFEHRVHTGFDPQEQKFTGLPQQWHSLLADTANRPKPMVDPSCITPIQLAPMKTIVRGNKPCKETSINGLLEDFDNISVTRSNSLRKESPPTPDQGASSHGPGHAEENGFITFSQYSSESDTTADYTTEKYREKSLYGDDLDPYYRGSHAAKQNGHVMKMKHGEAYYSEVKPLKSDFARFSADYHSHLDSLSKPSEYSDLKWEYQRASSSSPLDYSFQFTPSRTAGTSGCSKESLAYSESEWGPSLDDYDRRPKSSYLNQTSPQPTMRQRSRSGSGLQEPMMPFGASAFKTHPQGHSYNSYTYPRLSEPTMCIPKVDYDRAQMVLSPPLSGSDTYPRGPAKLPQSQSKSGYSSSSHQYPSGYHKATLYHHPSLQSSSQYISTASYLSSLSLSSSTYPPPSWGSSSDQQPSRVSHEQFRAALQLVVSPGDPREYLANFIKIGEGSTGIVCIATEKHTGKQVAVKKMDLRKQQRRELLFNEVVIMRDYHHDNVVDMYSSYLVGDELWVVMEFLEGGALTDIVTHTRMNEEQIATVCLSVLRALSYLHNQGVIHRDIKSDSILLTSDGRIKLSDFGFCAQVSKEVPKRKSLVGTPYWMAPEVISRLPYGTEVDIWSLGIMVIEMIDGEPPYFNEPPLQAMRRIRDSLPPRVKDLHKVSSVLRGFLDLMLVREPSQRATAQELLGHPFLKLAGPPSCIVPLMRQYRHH
Chain of Serine/threonine-protein kinase PAK 2 (Homo sapiens) (Q13177 whole entry): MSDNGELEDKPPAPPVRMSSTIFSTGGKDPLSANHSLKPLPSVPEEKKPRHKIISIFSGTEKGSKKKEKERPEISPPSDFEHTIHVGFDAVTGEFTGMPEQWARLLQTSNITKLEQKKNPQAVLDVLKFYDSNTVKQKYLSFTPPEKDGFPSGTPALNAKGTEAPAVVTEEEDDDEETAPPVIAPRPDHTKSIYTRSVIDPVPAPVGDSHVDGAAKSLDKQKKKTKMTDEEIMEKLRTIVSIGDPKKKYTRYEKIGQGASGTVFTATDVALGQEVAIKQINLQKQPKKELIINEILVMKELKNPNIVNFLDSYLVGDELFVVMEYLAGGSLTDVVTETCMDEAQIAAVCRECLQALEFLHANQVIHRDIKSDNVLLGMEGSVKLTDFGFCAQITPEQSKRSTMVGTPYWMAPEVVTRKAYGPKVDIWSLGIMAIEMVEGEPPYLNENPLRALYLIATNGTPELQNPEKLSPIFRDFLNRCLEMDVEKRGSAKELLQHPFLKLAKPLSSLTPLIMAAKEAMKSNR

**Q.** Which IC50 [1] does the source give for CC(=O)N1CCC(n2ncc3c(N4CCOCC4)nc(-c4cccc(O)c4)nc32)CC1 here?
**A.** 49 nM

**Q.** With O=C(c1cccnc1)N1CCC(n2ncc3c(N4CCOCC4)nc(-c4cccc(O)c4)nc32)CC1 as the compound, how does the IC50 [2] read?
**A.** 86 nM

**Q.** What about the IC50 [1] of the same compound?
**A.** 6 nM

**Q.** What about the fold change (FC) [3] of the same compound?
**A.** > 10

**Q.** For Oc1cccc(-c2nc(N3CCOCC3)c3cnn(C4CCNCC4)c3n2)c1, which IC50 [1] is on record?
**A.** 215 nM

**Q.** Which IC50 [1] does the source give for c1ccc(CN2CCC(n3ncc4c(N5CCOCC5)nc(-c5cccc6cc[nH]c56)nc43)CC2)cc1 here?
**A.** 380 nM

**Q.** For CO[C@H]1C[C@@H]2CC[C@@H](C)[C@@](O)(O2)C(=O)C(=O)N2CCCC[C@H]2C(=O)O[C@H]([C@H](C)C[C@@H]2CC[C@@H](O)[C@H](OC)C2)CC(=O)[C@H](C)/C=C(\C)[C@@H](O)[C@@H](OC)C(=O)[C@H](C)C[C@H](C)/C=C/C=C/C=C/1C, which Activity [4] is on record?
**A.** inactive

**Q.** What about the Activity [5] of the same compound?
**A.** Active

**Q.** What about the Activity [6] of the same compound?
**A.** Active

**Q.** And the Activity [7]?
**A.** inactive

**Q.** For Oc1cccc(-c2nc(N3CCOCC3)c3cnn(C4CCN(Cc5cccnc5)CC4)c3n2)c1, which IC50 [1] is on record?
**A.** 10 nM

**Q.** Which IC50 [1] does the source give for c1ccc(CN2CCC(n3ncc4c(N5CCOCC5)nc(-c5cccnc5)nc43)CC2)cc1 here?
**A.** 695 nM

**Q.** For c1cncc(CN2CCC(n3ncc4c(N5CCOCC5)nc(-c5ccc6[nH]ccc6c5)nc43)CC2)c1, which inhibition [8] is on record?
**A.** 50%

**Q.** What about the inhibition [9] of the same compound?
**A.** 50%

**Q.** And the inhibition [10]?
**A.** 50%

**Q.** What about the Activity [4] of the same compound?
**A.** Dose-dependent effect

**Q.** And the Activity [11]?
**A.** Dose-dependent effect

**Q.** What about the inhibition [12] of the same compound?
**A.** 50%

**Q.** What about the Activity [13] of the same compound?
**A.** Active

**Q.** What about the inhibition [14] of the same compound?
**A.** 50%

**Q.** What about the Activity [5] of the same compound?
**A.** Dose-dependent effect

**Q.** What about the inhibition [15] of the same compound?
**A.** 50%

**Q.** What about the Activity [16] of the same compound?
**A.** Active

**Q.** What about the inhibition [17] of the same compound?
**A.** 50%

**Q.** And the Activity [18]?
**A.** Active

**Q.** And the inhibition [19]?
**A.** 50%

**Q.** What about the inhibition [20] of the same compound?
**A.** 50%

**Q.** What about the inhibition [21] of the same compound?
**A.** 50%

**Q.** And the Activity [6]?
**A.** Dose-dependent effect

**Q.** What about the Activity [22] of the same compound?
**A.** inactive

**Q.** What about the IC50 [1] of the same compound?
**A.** 9 nM

**Q.** And the inhibition [23]?
**A.** 50%

**Q.** And the Activity [7]?
**A.** Dose-dependent effect

**Q.** And the Activity [24]?
**A.** inactive

**Q.** What about the inhibition [25] of the same compound?
**A.** 50%

**Q.** What about the inhibition [26] of the same compound?
**A.** 50%

**Q.** With c1ccc(CN2CCC(n3ncc4c(N5CCOCC5)nc(-c5ccc6[nH]ccc6c5)nc43)CC2)cc1 as the compound, how does the IC50 [1] read?
**A.** 88 nM

**Q.** With c1ccc(CN2CCC(n3ncc4c(N5CCOCC5)nc(-c5ccc6ncccc6c5)nc43)CC2)cc1 as the compound, how does the IC50 [1] read?
**A.** 5950 nM

**Q.** With Oc1ccc(-c2nc(N3CCOCC3)c3cnn(C4CCN(Cc5ccccc5)CC4)c3n2)cc1 as the compound, how does the IC50 [1] read?
**A.** 170 nM

**Q.** Which IC50 [1] does the source give for O=c1[nH]c2ccc(-c3nc(N4CCOCC4)c4cnn(C5CCN(Cc6ccccc6)CC5)c4n3)cc2[nH]1 here?
**A.** 190 nM

**Q.** What about the fold change (FC) [3] of the same compound?
**A.** > 20

**Q.** For c1cc2cc(-c3nc(N4CCOCC4)c4cnn(C5CCNCC5)c4n3)ccc2[nH]1, which IC50 [1] is on record?
**A.** 170 nM

**Q.** For Oc1ccccc1-c1nc(N2CCOCC2)c2cnn(C3CCN(Cc4ccccc4)CC3)c2n1, which IC50 [1] is on record?
**A.** 1260 nM

**Q.** Which IC50 [1] does the source give for c1ccc(CN2CCC(n3ncc4c(N5CCOCC5)nc(-c5cccc6[nH]ccc56)nc43)CC2)cc1 here?
**A.** 145 nM

**Q.** With c1ccc(CN2CCC(n3ncc4c(N5CCOCC5)nc(-c5ccncc5)nc43)CC2)cc1 as the compound, how does the IC50 [1] read?
**A.** 7300 nM

**Q.** For c1ccc(CN2CCC(n3ncc4c(N5CCOCC5)nc(-c5cnc6ccccc6c5)nc43)CC2)cc1, which IC50 [1] is on record?
**A.** 120 nM

**Q.** What does the source list for Oc1cccc(-c2nc(N3CCOCC3)c3cnn(C4CCN(Cc5ccccc5)CC4)c3n2)c1?
**A.** half-life [27]: 13 min; IC50 [1]: 78 nM; fold change (FC) [3]: > 10

**Q.** With c1ccc(CN2CCC(n3ncc4c(N5CCOCC5)nc(-c5ccc6cc[nH]c6c5)nc43)CC2)cc1 as the compound, how does the IC50 [1] read?
**A.** 230 nM

**Q.** For O=C(c1cccnc1)N1CCC(n2ncc3c(N4CCOCC4)nc(-c4ccc5[nH]ccc5c4)nc32)CC1, which IC50 [2] is on record?
**A.** 5870 nM

**Q.** And the IC50 [1]?
**A.** 4 nM

**Q.** For O=C(c1ccccc1)N1CCC(n2ncc3c(N4CCOCC4)nc(-c4cccc(O)c4)nc32)CC1, which IC50 [2] is on record?
**A.** 50 nM

**Q.** What about the IC50 [1] of the same compound?
**A.** 4 nM

**Q.** Which IC50 [1] does the source give for c1ccc(CN2CCC(n3ncc4c(N5CCOCC5)nc(-c5cc6ccccc6[nH]5)nc43)CC2)cc1 here?
**A.** 130 nM
